What was measured:
[1] = Parent ionizable lipid remaining in liver at 6 h after luciferase mRNA LNP (LC-MS); format: in vivo; conditions: 6 h after IV 0.5 mg/kg Luciferase mRNA LNP
Procedure: Liver tissues were treated with PBS and homogenized with a FastPrep machine, 3 cycles of 5 m/s×15 s. Homogenates from the PBS-treated control animals was pooled and used for standard curve preparation. Samples were extracted into a deep well plate with 250 μL of an internal suitability standard. Plates were centrifuged for 15 min at 4° C. and 2000 rpm. Analysis was performed using an Agilent 6520 QTOF coupled to an Agilent 1290 UHPLC, using reverse-phase LC separation. Quantitation of the ionizable lipid was by MS/MS against a calibration curve spiked into appropriately matched blank matrix. Calibration used a similar class of synthetic lipid as internal standard.
At 6 h post-dose, some treatment groups reported lower levels of novel ionizable lipid in mouse liver compared to the benchmark (Tables 16-18).

[2] = tested on: luciferase activity in the liver; assay: Luciferase activity in liver after intravenous luciferase mRNA LNP; format: in vivo; conditions: 0.5 mg/kg IV, 6 h post-IV administration, BALB/c mice (n = 4)
Procedure: Frozen aliquots of liver were thawed and homogenized in 1 mL of 1×CCLR (Cell Culture Lysis Reagent) using a FastPrep® homogenizer. The homogenate was then centrifuged at 16,000 RPM for 10 minutes at 4° C. Twenty (20) μL of the supernatant was loaded into a 96-well white plate and luminescence measured following addition of luciferase reagent (Promega Luciferase Assay System). Luciferase activity was determined by comparing luminescence of the homogenized samples to luciferase protein standards. To account for any quenching of luminescence by components in the liver homogenate, luciferase was added to the liver homogenates of untreated animals and the resulting luminescence measured. The resulting quench factor was applied to all samples to obtain the corrected luciferase activity, and normalized per unit mass of tissue analyzed.

[3] = Particle characteristics of LNPs containing luciferase mRNA and novel ionizable lipids; format: physicochemical
Procedure: The lipid solution contains 4 components: a PEG-conjugated lipid, an ionizable lipid, cholesterol, and a phospholipid (e.g., DSPC). Lipid stocks were prepared using the lipid identities and molar ratios as described, to achieve a total concentration of ˜7 mg/mL in 100% ethanol. Firefly luciferase mRNA (TriLink Biotechnologies, L-7202) or ornithine transcarbamylase (OTC) mRNA (TriLink Biotechnologies, custom designed) was diluted in acetate, pH 5 buffer and nuclease free water to achieve a target concentration of 0.366 mg/mL mRNA in 100 mM acetate, pH 5. Equal volumes of the lipid and nucleic acid solutions were blended at a flow rate of 400 mL/min through a T-connector, and diluted with ˜4 volumes of PBS, pH 7.4. Formulations were placed in Slide-A-Lyzer dialysis units (MWCO 10,000) and dialyzed overnight against 10 mM Tris, 500 mM NaCl, pH 8 buffer. Following dialysis, the formulations were concentrated to ˜0.6 mg/mL using VivaSpin concentrator units (MWCO 100,000) and dialyzed overnight against 5 mM Tris, 10% sucrose, pH 8 buffer. Formulations were filtered through a 0.2 μm syringe filter (PES membrane). Nucleic acid concentration was determined by the RiboGreen assay. Particle size and polydispersity were determined using a Malvern Nano Series Zetasizer.
LNP formulations containing novel ionizable lipids all produced stable particles with high encapsulation efficiency (Tables 1-7).

[4] = Table 1, luciferase mRNA LNP 1.6:54.6:32.8:10.9
[5] = Table 2, luciferase mRNA LNP 1.6:54.6:32.8:10.9
[6] = Table 5, luciferase mRNA LNP 1.6:54.6:32.8:10.9

SMILES: CCCCCCCCCCC(CCCCCCC(=O)OCCC(CCCCCC)CCCCCC)N(CCCCCCCC(=O)OCCC(CCCCCC)CCCCCC)C(=O)CCCN(C)C (centres unmarked) [Compound 69]
- Parent ionizable lipid remaining in liver, Average ([1]; Table 17, female mice (n = 4)): 50.57 nmol/g liver
- Luc Activity ([2]; Table 13): 4.10E+07 pg/g liver

SMILES: CCCCCCCCCCC(CCCCCCC(=O)OCCC(CCCCC)CCCCC)N(CCCCCCCC(=O)OCc1cc(CCCCCC)cc(CCCCCC)c1)C(=O)CCCN(C)C (centres unmarked) [Compound 66]
- Parent ionizable lipid remaining in liver, Average ([1]; Table 18, female BALB/c mice (n = 4)): 34.35 nmol/g liver
- Luc Activity ([2]; Table 14): 2.00E+07 pg/g liver

SMILES: CCCCCCCCCCC(CCCCCCC(=O)OCCC(CCCCCCC)CCCCCCC)N(CCCCCCCC(=O)OCCC(CCCCCCC)CCCCCCC)C(=O)CCCN(C)C (centres unmarked) [Compound 71]
- Parent ionizable lipid remaining in liver, Average ([1]; Table 17, female mice (n = 4)): 27.52 nmol/g liver
- Luc Activity ([2]; Table 13): 4.58E+07 pg/g liver

SMILES: CCCCCCCCCC(CC(=O)OCC(CCCCCC)CCCCCCCC)N(CCCN(C)C)S(=O)(=O)CCCC (centres unmarked) [Compound 49, 2-Hexyldecyl 3-(N-(3-(dimethylamino)propyl)butylsulfonamido)dodecanoate]
- Final Product % EE [3, 4]: 96%
- Final Product PDI [3, 4]: 0.08
- Final Product Z-avg ([3]; Table 1, luciferase mRNA LNP 1.6:54.6:32.8:10.9 PEG2000-C-DMA:Ionizable lipid:Cholesterol:DSPC): 61 nm
- Luc Activity ([2]; Table 8): 8.36E+06 pg/g liver

SMILES: CCCCCCCCCC(=O)N(CCCN(C)C)C(CCCCCCCCC)CC(=O)NN(CCCCCCCC)CCCCCCCC (centres unmarked) [Compound 53, N-[3-(dimethylamino)propyl]-N-[1-(N′,N′-dioctylhydrazinecarbonyl)undecan-2-yl]decanamide]
- Final Product % EE [3, 5]: 97%
- Final Product PDI [3, 5]: (0.07)
- Final Product Z-avg [3, 5]: 106 nm
- Luc Activity ([2]; Table 9): 8.02E+06 pg/g liver

SMILES: CCCCCCCCCCC(CCCCCCC(=O)OCC(CCCCCC)CCCCCCCC)N(CCCCCCCCCC)C(=O)CCCN(C)C (centres unmarked) [Compound 1, 2-Hexyldecyl 8-(N-decyl-4-(dimethylamino)butanamido)-octadecanoate]
- Final Product % EE [3, 6]: 99%
- Final Product PDI [3, 6]: 0.04
- Final Product Z-avg [3, 6]: 77 nm
- Luc Activity ([2]; Table 12): 1.70E+08 pg/g liver

SMILES: CCCCCCCCCCON(C(=O)CCCN(C)C)C(CCCCCCCCCC)CCCCCC(=O)OCC(CCCCCC)CCCCCCCC (centres unmarked) [Compound 44, 2-Hexyldecyl 7-(N-(decyloxy)-4-(dimethylamino)butanamido)heptadecanoate]
- Final Product % EE [3, 6]: 98%
- Final Product PDI [3, 6]: 0.06
- Final Product Z-avg [3, 6]: 68 nm
- Luc Activity ([2]; Table 12): 6.17E+07 pg/g liver

SMILES: CCCCCCCCCC(CC(=O)OCC(CCCCCC)CCCCCCCC)N(CCCN(C)C)C(=O)CCCCC(=O)OCC(CCCC)CCCCCC (centres unmarked) [Compound 21, 2-hexyldecyl 3-{6-[(2-butyloctyl)oxy]-N-[3-(dimethylamino)propyl]-6-oxohexanamido}dodecanoate]
- Final Product % EE [3, 5]: 98%
- Final Product PDI [3, 5]: (0.03)
- Final Product Z-avg [3, 5]: 77 nm
- Luc Activity ([2]; Table 9): 4.58E+07 pg/g liver

SMILES: CCCCCCCCCC(=O)N(CCCN(C)C)C(CCCCCCCCC)CCOC(=O)C(F)(CCCCCC)CCCCCCCC (centres unmarked) [Compound 40, 3-{N-[3-(dimethylamino)propyl]decanamido}dodecyl 2-fluoro-2-hexyldecanoate]
- Final Product % EE [3, 5]: 98%
- Final Product PDI [3, 5]: (0.05)
- Final Product Z-avg [3, 5]: 87 nm
- Luc Activity ([2]; Table 9): 3.57E+07 pg/g liver

SMILES: CCCCCCCCCCC(CCCCC(=O)OCC(CCCCCC)CCCCCCCC)N(CCCCCCCCCC)C(=O)CCCN(C)C (centres unmarked) [Compound 2, 2-Hexyldecyl 6-(N-decyl-4-(dimethylamino)butanamido)hexadecanoate]
- Final Product % EE [3, 6]: 96%
- Final Product PDI [3, 6]: 0.08
- Final Product Z-avg [3, 6]: 81 nm
- Luc Activity ([2]; Table 12): 7.11E+07 pg/g liver

SMILES: CCCCCCCCCC(CC(=O)OCC(CCCCCC)CCCCCCCC)N(CCCN(C)C)C(=O)CCCCCCC(=O)OCC(CCCC)CCCCCC (centres unmarked) [Compound 22, 2-Hexyldecyl 3-(8-((2-butyloctyl)oxy)-N-(3-(dimethylamino)propyl)-8-oxooctanamido)-dodecanoate]
- Final Product % EE [3, 5]: 98%
- Final Product PDI [3, 5]: (0.04)
- Final Product Z-avg [3, 5]: 74 nm
- Luc Activity ([2]; Table 9): 4.71E+07 pg/g liver

Reference: patent US20250332112A1, “IONIZABLE CATIONIC LIPIDS FOR LIPID NANOPARTICLES” (GENEVANT SCIENCES GMBH, priority 2022, published 2025)
